Source: publication PMC2812605 (Biochemical pharmacology, 2009)

Target: T1, P2Y14 receptor (Rattus norvegicus, UniProt O35881)
T1 sequence (O35881 1-305): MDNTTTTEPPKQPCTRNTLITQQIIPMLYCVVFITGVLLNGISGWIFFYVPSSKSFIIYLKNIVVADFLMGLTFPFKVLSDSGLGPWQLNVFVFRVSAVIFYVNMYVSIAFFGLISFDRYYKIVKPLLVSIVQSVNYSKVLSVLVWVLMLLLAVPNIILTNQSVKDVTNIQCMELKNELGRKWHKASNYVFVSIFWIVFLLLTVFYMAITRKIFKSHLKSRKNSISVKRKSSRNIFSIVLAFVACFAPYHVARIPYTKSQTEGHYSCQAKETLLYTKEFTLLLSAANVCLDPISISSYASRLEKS
Assay: agonist-stimulated […]GTPγS binding to RBL-2H3 membranes
Format: biochemical

O=c1ccn([C@@H]2O[C@H](COP(=O)(O)OP(=O)(O)O[C@H]3O[C@H](CO)[C@@H](O)[C@H](O)[C@H]3O)[C@@H](O)[C@H]2O)c(=S)[nH]1 [MRS2690, diphosphoric acid 1-α-D-glucopyranosyl ester 2-(2-thiouridin-5’’-yl) ester]
EC50: 8.1 ± 1.6 nM
